Source: PMC3383612 (Chemical biology & drug design, 2011)
pKi: −log10 of the molar value.

Legend:
spASADH [1] = target: T1, spASADH (Streptococcus pneumoniae, UniProt Q8DQ00); settings: in words; ref [14]; cited from earlier work
T1 sequence (Q8DQ00 1-358): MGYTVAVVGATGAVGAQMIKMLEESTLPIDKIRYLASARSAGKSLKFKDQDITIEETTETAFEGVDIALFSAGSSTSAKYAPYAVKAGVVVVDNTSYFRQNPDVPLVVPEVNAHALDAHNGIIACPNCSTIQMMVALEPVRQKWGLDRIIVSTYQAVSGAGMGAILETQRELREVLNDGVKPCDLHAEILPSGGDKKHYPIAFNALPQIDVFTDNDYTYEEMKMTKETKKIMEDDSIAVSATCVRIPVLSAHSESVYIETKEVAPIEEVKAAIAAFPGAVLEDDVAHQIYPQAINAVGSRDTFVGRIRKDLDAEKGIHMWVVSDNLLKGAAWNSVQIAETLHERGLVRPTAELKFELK

spASADH [2] = target: T1, spASADH; test: Kinetic inhibition of spASADH; type: biochemical
ASADH = ASADH (Vibrio cholerae serotype O1, UniProt Q9KQG2); test: Kinetic inhibition of ASADH by substrate analogue; type: biochemical; settings: inhibitor of ASADH, enzyme form not stated
Sequence of ASADH (Q9KQG2 whole entry): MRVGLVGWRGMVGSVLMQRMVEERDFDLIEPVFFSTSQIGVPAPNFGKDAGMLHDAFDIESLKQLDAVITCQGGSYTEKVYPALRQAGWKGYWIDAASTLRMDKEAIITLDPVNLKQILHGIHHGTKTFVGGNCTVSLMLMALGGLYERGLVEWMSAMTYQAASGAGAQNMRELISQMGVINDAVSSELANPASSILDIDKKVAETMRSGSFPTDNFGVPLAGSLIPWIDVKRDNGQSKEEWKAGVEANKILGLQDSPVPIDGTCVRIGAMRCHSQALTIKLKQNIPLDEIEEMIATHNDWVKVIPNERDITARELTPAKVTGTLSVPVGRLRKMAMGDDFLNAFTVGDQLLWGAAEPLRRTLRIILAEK

SMILES: NC(CCCC(=O)O)C(=O)O (racemic) [DL-2-aminoadipate]
- inhibitory activity (spASADH [1]): little inhibitory activity

SMILES: Nc1cc(C(=O)O)ccc1C(=O)O [2-aminoterephthalate]
- pKi (spASADH [2]): 3.11
- enhanced affinity relative to terephthalic acid (spASADH [2]; ratio of Ki values): greater than 6 fold

SMILES: C=CC[S@+]([O-])C[C@H](N)C(=O)O [S-allyl-L-cysteine sulfoxide]
- pKi (ASADH): 5.10

SMILES: O=C(O)c1ccc(C(=O)O)cc1 [Terephthalic acid, benzene-1,4-dicarboxylic acid]
- pKi (spASADH [2]): ~2.30

SMILES: O=C(O)C1CCC(C(=O)O)CC1 (stereo not drawn) [cyclohexane-1,4-dicarboxylate]
- higher affinity than 2-aminoterephthalate (spASADH [2]; ratio of Ki values): 2 fold
